For one compound, Km results are on record in paper PMC3902948 (Nucleic Acids Research, 2013).

Test systems include Prp43-Ntr1(51–102); Prp43-Ntr1(59–110); Prp43-Ntr1(51–110); Prp43-Ntr1(62–110); Prp43-Ntr1(51–99).
Holding throughout (conditions): read-out: In absence of RNA / KM; no RNA; 100 mM NaCl, 10 mM Tris pH 7.5, 2 mM MgCl2
Experiment [1] deals with Prp43(1–745)-Ntr1(51–110).

Turning to `Nc1ncnc2c1ncn2[C@@H]1O[C@H](COP(=O)(O)OP(=O)(O)OP(=O)(O)O)[C@@H](O)[C@H]1O` [ATP], the Km with Prp43-Ntr1(51–102) turned out to be 17.5 ± 2.43 µM; in the experiment on Prp43-Ntr1(59–110), 8.77 ± 1.09 µM; with Prp43-Ntr1(51–110), 39.5 ± 3.92 µM; with Prp43-Ntr1(62–110), 10.6 ± 2.18 µM; in experiment [1], 28.3 ± 4.61 µM; with Prp43-Ntr1(51–99) it was 10.7 ± 1.38 µM.
